Where two headings read alike, the source gives them in different places.
Experiments:
[1] = system: platelet function in whole blood; assay: Closure time under flow conditions, ADP/PGE1/calcium test cartridge in PFA-100, citrated whole blood treated in vitro; format: cell-based, human; conditions: cut-off 81 seconds, MRS 2395 100 μmol/L; for Number of samples with closure times above cut-off (n = 11): ASA 30 μmol/L, citrated whole blood of 11 healthy donors
Description: For the preparation of a partition member for a test cartridge according to the invention a polyether sulfone filter membrane (Supor® membrane, Pall GmbH, Dreieich, Germany) was cut into strips. 1 μL of a solution comprising 7 μg/μL ADP (adenosine-5′-diphosphate potassium salt.2H2O, Sigma-Aldrich Chemie GmbH, Steinheim, Germany) and 5 ng/μL PGE1 (prostaglandin E1, Sigma-Aldrich Chemie GmbH, Steinheim, Germany) and 367.5 μg/μL CaCl2.2H2O (equivalent to 100 μg/μL Ca^2+ ions) were pipetted punctiform onto the membrane and the membrane was dried. Next a circular opening (aperture) with a diameter of 100 μm was punched out of the middle of the region of the membrane treated with the reagents. The membrane thus prepared was used as partition member in the measurement chamber of a PFA-100® test cartridge (Dade Behring Marburg GmbH, Marburg, Germany).
(§1) Venous blood was taken from 11 healthy donors and anticoagulated with sodium citrate (3.2% buffered Na citrate).
(§2) Aliquots of the citrated whole blood sample were treated in vitro with the P2Y(12) antagonist MRS 2395 (Sigma-Aldrich Chemie GmbH, Steinheim, Germany). For this purpose an ethanolic MRS 2395 stock solution (15 mg/mL) was mixed with the whole blood samples so that an end concentration of 100 μmol/L was obtained.
Further aliquots of the citrated whole blood samples were treated in vitro with the COX-1 inhibitor acetylsalicylic acid (abbr.: ASA; Sigma-Aldrich Chemie GmbH, Steinheim, Germany). […]
To determine the closure time as a measure of platelet function the whole blood samples described under Example 2a) were investigated with the aid of the ADP/PGE1/calcium test cartridge according to the invention described in Example 1 in a PFA-100® apparatus (Platelet Function Analyzer-100, Dade Behring Marburg GmbH, Marburg, Germany). […] The time required up to the closure of the aperture by formation of a blood clot was determined as closure time. Every sample investigated was determined in duplicate and the mean value of a duplicate determination was used as the measurement value.
Venous blood was taken from healthy donors and anticoagulated with sodium citrate (3.2% buffered Na citrate). […] Samples from 186 donors were determined in duplicate with a Col/Epi PFA-100® test cartridge [see Example 2c)]. Samples from 159 donors were determined in duplicate with an ADP/PGE1/calcium test cartridge according to the invention [see Examples 1 and 2c)].
The reference ranges (normal range) for the Col/Epi closure time and the ADP/PGE1 closure time were established in that the measurement value ranges in which 90% of the measurement values found for the healthy subjects lay were determined (90% central interval of the normal distribution of all measurements). […]

[2] = system: platelet function in whole blood; assay: Closure time under flow conditions, conventional Col/Epi PFA-100 test cartridge, citrated whole blood treated in vitro; format: cell-based, human; conditions: cut-off 158 seconds, MRS 2395 100 μmol/L; for Number of samples with closure times above cut-off (n = 11): ASA 30 μmol/L, citrated whole blood of 11 healthy donors
[3] = system: platelet function in whole blood; assay: Closure time under flow conditions, ADP/PGE1 test cartridge without calcium in PFA-100, PPACK whole blood treated in vitro; format: cell-based, human; conditions: cut-off 90 seconds, MRS 2395 150 μmol/L, ASA 30 μmol/L, MRS 2179 75 μmol/L; for Number of samples with closure times above cut-off (n = 10): ADP/PGE1 cartridge without calcium, PPACK whole blood of 10 healthy donors; for closure time relative to cut-off (FIG. 3, mean values): ADP/PGE1 cartridge, PPACK blood, 10 donors
Description: Venous blood was taken from 10 healthy donors and anticoagulated with 75 μM PPACK.
Aliquots of the whole blood samples were treated in vitro with the P2Y(12) antagonist MRS 2395 (Sigma-Aldrich Chemie GmbH, Steinheim, Germany). For this purpose an ethanolic MRS 2395 stock solution (15 mg/mL) was mixed with the whole blood samples so that an end concentration of 150 μmol/L was obtained.
Further aliquots of the whole blood samples were treated in vitro with the COX-1 inhibitor acetylsalicylic acid (abbr. ASA; Sigma-Aldrich Chemie GmbH, Steinheim, Germany). For this purpose an aqueous ASA stock solution (1 mg/mL) was mixed with the whole blood samples so that an end concentration of 30 μmol/L was obtained.
Further aliquots of the whole blood samples were treated in vitro with the P2Y(1) antagonist MRS 2179 (Sigma-Aldrich Chemie GmbH, Steinheim, Germany). For this purpose an aqueous MRS 2179 stock solution (1 mg/ml) was mixed with the whole blood samples so that an end concentration of 75 μmol/L was obtained.
(§3) After addition of the reagents the blood samples were incubated at room temperature for 5 minutes.
For the determination of the closure time as a measure of the platelet function the whole blood samples described under Example 4a) were investigated with the aid of a ADP/PGE1 test cartridge according to the invention in a PFA-100® apparatus (Platelet Function Analyzer-100, Dade Behring Marburg GmbH, Marburg, Germany). The ADP/PGE1 test cartridge according to the invention used was prepared essentially as described in Example 1 but without the partition member having been treated with CaCl2.2H2O. The test cartridge thus comprised 7 μg ADP and 5 ng PGE1 but no calcium ions.
700 μL of a blood sample was added to the reservoir of the temperature equilibrated test cartridge (+37° C.) and incubated at +37° C. in the apparatus for 3 minutes. Next a partial vacuum of −40 mbar was applied by the apparatus when the blood was sucked through a capillary (diameter 200 μm) from the reservoir and finally through an opening (aperture) of the partition member in the measurement chamber. The time that was required up to the closure of the aperture by formation of a blood clot was determined as closure time. Every sample investigated was determined in duplicate and the mean value of a duplicate determination was used as the measurement value.
Owing to the use of PPACK as anticoagulant the cut-off determined with citrated whole blood in the above-described examples cannot be used. Therefore, the reference range for the ADP/PGE1 closure time from the 10 samples of the healthy donors treated with PPACK was calculated by the determination of the 90% central interval of the normal distribution of the mean values of the duplicate determinations. This gave the following reference ranges for the closure times:
The upper limit of the 90% central interval was defined as cut-off, i.e. as threshold value for a platelet dysfunction.

[4] = system: platelet aggregation in platelet rich plasma; assay: ADP-induced light transmission aggregometry (according to Born), in vitro treated samples, 2 μM ADP; format: cell-based, human; conditions: MRS 2395 100 μmol/L in citrated blood, 5 min room temperature, PRP, 11 healthy donors
Description: as §1, §2, §3
In order to check whether the samples treated with MRS 2395 actually show a reduced platelet aggregation, platelet rich (PRP) and platelet poor (PPP) plasma was prepared from aliquots of the untreated and MRS 2395-treated whole blood samples described under Example 2a), and the samples were then treated with 2 μM ADP. The PPP samples were used as blank controls. The photometric measurement of the aggregation reaction was carried out in the automated coagulation apparatus BCT® (Dade Behring Marburg GmbH, Marburg, Germany) under continuous stirring (600 rpm). The platelet aggregation of the samples treated with MRS 2395 was reduced by a mean of 27% compared with the platelet aggregation of the untreated samples.

[5] = system: platelet function in whole blood; conditions: Method 2 ADP cartridge without PGE1; 13 patients on 75 mg clopidogrel daily
From the text: The samples were investigated with the aid of different methods to determine platelet function. • 1. according to the invention under flow conditions and use of an ADP/PGE1/calcium PFA-100® test cartridge (see Examples 1 and 2c), cut-off: >81 seconds; • 2. under flow conditions and use of a PFA-100® test cartridge that differed from the test cartridge according to the invention in accordance with Example 1 in that it comprised no PGE1, cut-off: >78 seconds; • 3. with ADP-induced light transmission aggregometry (according to Born) with addition of 2 μM ADP (see Example 2b), cut-off: <40% light transmission at end of test; • 4. with ADP-induced light transmission aggregometry (according to Born) with the addition of 5 μM ADP (see example 2b), cut-off: <40% light transmission at end of test. This method is recommended by Sanofi-Aventis, the manufacturer of the clopidogrel preparation Plavix®, for the determination of the antithrombotic effect of the medicament.
The cut-offs for the individual test procedures were determined by preliminary investigations with whole blood and plasma samples of normal donors.
“+” means an antithrombotic effect could be detected. “−” means no antithrombotic effect could be detected. “0” means that the duplicate determination gave contradictory results, i.e. one value above and one value below the cut-off.

[6] = system: platelet function in whole blood; conditions: Method 1 ADP/PGE1/calcium cartridge; 13 patients on 75 mg clopidogrel daily
platelet aggregation [7] = conditions: Method 3 aggregometry 2 μM ADP; 13 patients on 75 mg clopidogrel daily
platelet aggregation [8] = conditions: Method 4 aggregometry 5 μM ADP; 13 patients on 75 mg clopidogrel daily

SMILES	Number of samples with closure times above cut-off (n = 11) [1]	Number of samples with closure times above cut-off (n = 11) ([1]; listed as acetylsalicylic acid)	Number of samples with closure times above cut-off (n = 11) [2]	Number of samples with closure times above cut-off (n = 10) [3]	Number of samples with closure times above cut-off (n = 10) ([3]; listed as acetylsalicylic acid)	closure time relative to cut-off (FIG. 3, mean values) [3]	platelet aggregation reduced compared with untreated samples (mean) [4] [%]	closure time relative to cut-off (FIG. 2, mean values) ([1]; citrated blood, 11 donors)	closure time relative to cut-off (FIG. 2, mean values) ([2]; citrated blood, 11 donors)	Sensitivity (share of 13 patients with detected antithrombotic effect) [5] [%]	Sensitivity (share of 13 patients with detected antithrombotic effect) [6] [%]	number of patients in whom the antithrombotic effect could be detected (of 13) [6]	Sensitivity (share of 13 patients with detected antithrombotic effect) (platelet aggregation [7]) [%]	Sensitivity (share of 13 patients with detected antithrombotic effect) (platelet aggregation [8]) [%]
CC(=O)Oc1ccccc1C(=O)O [Acetylsalicylic acid, acetylsalicylic acid]	1	one	8	0	none	no prolongation of closure times	–	–	–	–	–	–	–	–
CNc1ncnc2c1ncn2[C@H]1C[C@H](OP(=O)(O)O)[C@@H](COP(=O)(O)O)O1.N.N [MRS 2179, 2′-deoxy-N6-methyladenosine-3′,5′-bisphosphate, diammonium salt]	–	–	–	10	–	closure times that lie significantly above the reference value (cut-off)	–	–	–	–	–	–	–	–
CNc1nc(Cl)nc2c1ncn2CC(COC(=O)C(C)(C)C)COC(=O)C(C)(C)C [MRS 2395, 2,2-dimethyl-propionic acid 3-(2-chloro-6-methylaminopurin-9-yl)-2-(2,2-dimethyl-propionyloxymethyl)-propyl ester]	9	–	4	9	–	closure times that lie significantly above the reference value (cut-off)	27	closure times that lie significantly above the upper reference value (cut-off)	lie to a greater extent below the upper reference value (cut-off)	–	–	–	–	–
COC(=O)[C@H](c1ccccc1Cl)N1CCc2sccc2C1 [clopidogrel]	–	–	–	–	–	–	–	–	–	46	77	10	69	62
